Where two headings read alike, the source gives them in different places.
Columns and labels:
[1] = tested on: murine leukemia L1210 cell line; assay: In vitro cytotoxicity assay
Method: (§1) In preliminary experiments to evaluate cytotoxicity to mammalian cells, the murine leukemia L1210 cell line and the human liver cell line HepG2 were grown under identical conditions alongside Pf 3D7. These were treated with TrtE, the chemotherapeutic methotrexate, and DSM265, an inhibitor of parasite dihydroorotate dehydrogenase ([19]).

[2] = tested on: P. falciparum clone IPC 3445; assay: Standard growth inhibition assay, Pf clone panel; assay type: cell-based; conditions: Plasmodium falciparum; clone IPC 3445, Palin, Cambodia; read-out: EC50 (nM) (95% CI)
Method: (§2) A diverse panel of P. falciparum clones, collected from four continents with varying genetic backgrounds and well-characterized susceptibilities to novel and existing antimalarials, was treated with TrtE and DHA in standard growth inhibition assays. […] Additional studies are needed to determine whether there is any similarity in mechanism between TrtE and DHA.

[3] = tested on: P. falciparum clone TM90C2A; assay: Standard growth inhibition assay, Pf clone panel; assay type: cell-based; conditions: Plasmodium falciparum, Thailand, read-out: EC50 (nM) (95% CI)
Method: as §2

[4] = tested on: P. falciparum clone HB3; assay: Standard growth inhibition assay, Pf clone panel; assay type: cell-based; conditions: Plasmodium falciparum; clone HB3, Honduras; read-out: EC50 (nM) (95% CI)
Method: as §2

[5] = tested on: P. falciparum clone Dd2; assay: Standard growth inhibition assay, Pf clone panel; assay type: cell-based; conditions: Plasmodium falciparum, DD2, read-out: EC50 (nM) (95% CI)
Method: as §2

[6] = tested on: P. falciparum clone NF54; assay: Standard growth inhibition assay, Pf clone panel; assay type: cell-based; conditions: Plasmodium falciparum; clone NF54, Netherlands; read-out: EC50 (nM) (95% CI)
Method: as §2

[7] = tested on: P. falciparum clone GMC1; assay: Standard growth inhibition assay, Pf clone panel; assay type: cell-based; conditions: Plasmodium falciparum; clone GMC1, Goa, India; read-out: EC50 (nM) (95% CI)
Method: as §2

[8] = tested on: P. falciparum clone D10 w/ yDHODH; assay: Standard growth inhibition assay, Pf clone panel; assay type: cell-based; conditions: Plasmodium falciparum, D10, read-out: EC50 (nM) (95% CI)
Method: as §2

[9] = tested on: P. falciparum clone IPC 5202; assay: Standard growth inhibition assay, Pf clone panel; assay type: cell-based; conditions: Plasmodium falciparum; clone IPC 5202, Battambang, Cambodia; read-out: EC50 (nM) (95% CI)
Method: as §2

[10] = tested on: P. falciparum clone D6; assay: Standard growth inhibition assay, Pf clone panel; assay type: cell-based; conditions: Plasmodium falciparum; clone D6, Sierra Leone; read-out: EC50 (nM) (95% CI)
Method: as §2

[11] = tested on: P. falciparum clone V1/S; assay: Standard growth inhibition assay, Pf clone panel; assay type: cell-based; conditions: Plasmodium falciparum, Vietnam, read-out: EC50 (nM) (95% CI)
Method: as §2

[12] = tested on: P. falciparum clone 3D7; assay: Standard growth inhibition assay, Pf clone panel; assay type: cell-based; conditions: Plasmodium falciparum; clone 3D7, Netherlands; read-out: EC50 (nM) (95% CI)
Method: as §2

[13] = tested on: P. falciparum clone 7G8; assay: Standard growth inhibition assay, Pf clone panel; assay type: cell-based; conditions: Plasmodium falciparum; clone 7G8, Brazil; read-out: EC50 (nM) (95% CI)
Method: as §2

[14] = tested on: P. falciparum NF54 oocyst development in Anopheles dirus mosquitoes; assay: Mosquito infectivity assay (standard membrane feeding, oocyst count); assay type: in vivo, Plasmodium falciparum; conditions: 100 nM TrtE on late-stage gametocytes, fed to Anopheles dirus, oocysts counted after 9 days, four independent experiments, P = 0.016
Method: (§3) Gametocytes of Pf NF54, the competent gametocyte-producing clone, were treated with TrtE as previously described ([15], [16]). […] To validate the in vitro gametocytocidal activity of TrtE, mosquito infectivity assays were conducted. […] Oocyst development in mosquitoes represents a significant bottleneck in the life cycle of Plasmodium spp. where transmission can be efficiently interrupted ([18]).
Fig 4 TrtE inhibition of oocyst development in mosquitoes. Late-stage Pf NF54 gametocytes were incubated with 100 nM TrtE, the approximate gametocidal EC50, or left untreated. Following incubation and development to stage V, the cultures were fed to female Anopheles dirus mosquitoes using standard membrane feeding techniques. After 9 days, the mosquitoes were dissected, and oocysts were stained and counted. The infection rate was measured as the ratio of mosquitoes with one or more oocysts to the number of dissected mosquitoes. ^*P < 0.05.

[15] = tested on: P. falciparum 3D7 asexual blood stages; assay: Standard 72-hour inhibitor-response (parasite proliferation) assay; assay type: cell-based; conditions: Plasmodium falciparum; 3D7, 72-hour assay; read-out: 3D7 EC50
[16] = tested on: Pf NF54 late-stage gametocytes (stage III to stage V); assay: Late-stage gametocyte viability assay (alamarBlue); assay type: cell-based; conditions: Plasmodium falciparum, 72 h, 3 days treatment, three independent experiments
Method: as §3
Fig 3 TrtE activity against gametocytes. Enriched, late-stage gametocytes were treated for 3 days with TrtE and then viability-tested with alamarBlue (Invitrogen) ([15], [16]). Three independent experiments (squares, triangles, and diamonds) determined the average EC50 to be 140 ± 42 nM.

[17] = tested on: asexual parasites; conditions: preliminary single-step selection, data not shown
[18] = tested on: human liver cell line HepG2; assay: In vitro cytotoxicity assay; assay type: cell-based; conditions: for EC50: Homo sapiens
Method: as §1

[19] = tested on: diverse panel of P. falciparum clones; assay: Standard growth inhibition assays, whole panel; assay type: cell-based, Plasmodium falciparum; conditions: including two artemisinin-resistant clones from Western Cambodia
Method: as §2

[20] = tested on: Pf 3D7; assay: Parasite growth alongside mammalian cytotoxicity assays; assay type: cell-based; conditions: Plasmodium falciparum; 3D7, grown under identical conditions alongside mammalian cells; read-out: EC50 (µM) (95% CI) 3D7
Method: as §1

## C[C@@H]1CCC2CC(=O)C[C@@H](O)CC/C=C/C=C\CC[C@H](C)OC(=O)[C@@H]3O[B-]45O[C@@H](C(=O)O[C@@H](C)CC/C=C\C=C\CC[C@H](O)CC(=O)CC6CC[C@@H](C)[C@]3(O6)O4)[C@@]1(O2)O5 [Tartrolon E]
[1]; L1210
  Concentration inhibiting L1210 growth: sub-micromolar concentrations
[1]; L1210 vs 3D7
  Selectivity index (EC50 of L1210/EC50 3D7): 1,438
[1]; Mus musculus, L1210, read-out: EC50 (µM) (95% CI) L1210
  EC50: 0.23 µM
[2]
  EC50: 0.73 nM
[3]
  EC50: 0.16 nM
[4]
  EC50: 0.13 nM
[5]
  EC50: 0.28 nM
[6]
  EC50: 0.2 nM
[7]
  EC50: 0.26 nM
[8]
  EC50: 0.19 nM
[9]
  EC50: 0.81 nM
[10]
  EC50: 0.14 nM
[11]
  EC50: 0.31 nM
[12]
  EC50: 0.16 nM
[13]
  EC50: 0.18 nM
[14]
  Mosquito infection by P. falciparum (infection rate, oocysts): significantly inhibited mosquito infection
[15]
  EC50: 0.105 nM
[16]
  EC50: 140 nM
[17]
  Hurdle to resistance under drug pressure: high hurdles to resistance
[18]; HepG2 vs 3D7
  Selectivity index (EC50 of HepG2/EC50 3D7): 444
[18]; HepG2, read-out: EC50 (µM) (95% CI) HepG2
  EC50: 0.071 µM
[18]; HepG2, as printed in text, read-out: HepG2 EC50
  EC50: 0.07 µM
[19]
  Concentration inhibiting all clones of the panel: sub-nanomolar concentrations
[20]
  EC50: 0.00016 µM

— paper PMC10848769, “Tartrolon E, a secondary metabolite of a marine symbiotic bacterium, is a potent inhibitor of asexual and sexual Plasmodium falciparum” (Antimicrobial Agents and Chemotherapy, 2024)
